Assay results reported in PubChem BioAssay (NCI).
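In this assay, cells in 96-well plates receive the compound at five concentrations for 48 hours. Endpoints are linearly interpolated between the surrounding concentrations. GI50: concentration for 50% inhibition of growth. Definition used: TGI = concentration required for complete inhibition of growth.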

Legend:
Test in all cases: NCI tumour cell line growth inhibition, 48 h
TK-10 renal = test system: TK-10 renal
NCI-H226 lung = test system: NCI-H226 lung
HL-60(TB) leukemia = test system: HL-60(TB) leukemia
OVCAR-3 ovarian = test system: OVCAR-3 ovarian
RPMI-8226 leukemia = test system: RPMI-8226 leukemia
U251 CNS = test system: U251 CNS
SN12C renal = test system: SN12C renal
SK-MEL-5 melanoma = test system: SK-MEL-5 melanoma
SF-295 CNS = test system: SF-295 CNS
SR leukemia = test system: SR leukemia
HCT-116 colon = test system: HCT-116 colon
HOP-62 NSCLC = test system: HOP-62 NSCLC
SF-268 CNS = test system: SF-268 CNS
SNB-75 CNS = test system: SNB-75 CNS
A498 renal = test system: A498 renal
NCI-H460 lung = test system: NCI-H460 lung
NCI-H522 lung = test system: NCI-H522 lung
OVCAR-4 ovarian = test system: OVCAR-4 ovarian
UACC-257 melanoma = test system: UACC-257 melanoma
MALME-3M melanoma = test system: MALME-3M melanoma
IGROV1 ovarian = test system: IGROV1 ovarian
CCRF-CEM leukemia = test system: CCRF-CEM leukemia
MDA-MB-435 = test system: MDA-MB-435
HCC-2998 colon = test system: HCC-2998 colon
SK-MEL-28 melanoma = test system: SK-MEL-28 melanoma
MCF7 breast = test system: MCF7 breast
OVCAR-8 ovarian = test system: OVCAR-8 ovarian
CAKI-1 renal = test system: CAKI-1 renal
786-0 renal = test system: 786-0 renal
EKVX NSCLC = test system: EKVX NSCLC
SW-620 colon = test system: SW-620 colon
HS 578T breast = test system: HS 578T breast
K-562 leukemia = test system: K-562 leukemia
T-47D breast = test system: T-47D breast
UACC-62 melanoma = test system: UACC-62 melanoma
LOX IMVI melanoma = test system: LOX IMVI melanoma
BT-549 breast = test system: BT-549 breast
DU-145 prostate = test system: DU-145 prostate
SK-MEL-2 melanoma = test system: SK-MEL-2 melanoma
ACHN renal = test system: ACHN renal
M14 melanoma = test system: M14 melanoma
SK-OV-3 ovarian = test system: SK-OV-3 ovarian
HOP-92 NSCLC = test system: HOP-92 NSCLC
HT29 colon = test system: HT29 colon
SNB-19 CNS = test system: SNB-19 CNS
MOLT-4 leukemia = test system: MOLT-4 leukemia
SF-539 CNS = test system: SF-539 CNS
MDA-MB-231 breast = test system: MDA-MB-231 breast
OVCAR-5 ovarian = test system: OVCAR-5 ovarian
HCT-15 colon = test system: HCT-15 colon
NCI/ADR-RES ovarian = test system: NCI/ADR-RES ovarian
NCI-H23 lung = test system: NCI-H23 lung
A549 NSCLC = test system: A549 NSCLC
COLO 205 colon = test system: COLO 205 colon
UO-31 renal = test system: UO-31 renal
KM12 colon = test system: KM12 colon

Structure (SMILES): CCNC(=O)N1CCc2c(Cl)c3c(c(OC)c2[C@@H]1[C@H]1OCc2c1ccc(OC)c2OC)OCCO3
- GI50 (TK-10 renal): 13.5 µM
- TGI (TK-10 renal): > 100 µM
- GI50 (NCI-H226 lung): 4.44 µM
- TGI (NCI-H226 lung): > 100 µM
- GI50 (HL-60(TB) leukemia): 2.49 µM
- TGI (HL-60(TB) leukemia): 6.43 µM
- GI50 (OVCAR-3 ovarian): 2.31 µM
- TGI (OVCAR-3 ovarian): 5.37 µM
- GI50 (RPMI-8226 leukemia): 4.41 µM
- TGI (RPMI-8226 leukemia): > 100 µM
- GI50 (U251 CNS): 3.75 µM
- TGI (U251 CNS): 37.5 µM
- GI50 (SN12C renal): 7.1 µM
- TGI (SN12C renal): > 100 µM
- GI50 (SK-MEL-5 melanoma): 4.59 µM
- TGI (SK-MEL-5 melanoma): 21.1 µM
- GI50 (SF-295 CNS): 1.86 µM
- TGI (SF-295 CNS): 6.51 µM
- GI50 (SR leukemia): 4.22 µM
- TGI (SR leukemia): > 100 µM
- GI50 (HCT-116 colon): 3.46 µM
- TGI (HCT-116 colon): > 100 µM
- GI50 (HOP-62 NSCLC): 3.69 µM
- TGI (HOP-62 NSCLC): > 100 µM
- GI50 (SF-268 CNS): 6.02 µM
- TGI (SF-268 CNS): > 100 µM
- GI50 (SNB-75 CNS): 2.2 µM
- TGI (SNB-75 CNS): 7.07 µM
- GI50 (A498 renal): 2.6 µM
- TGI (A498 renal): 7.91 µM
- GI50 (NCI-H460 lung): 3.47 µM
- TGI (NCI-H460 lung): 13.9 µM
- GI50 (NCI-H522 lung): 1.87 µM
- TGI (NCI-H522 lung): 6.66 µM
- GI50 (OVCAR-4 ovarian): 40.6 µM
- TGI (OVCAR-4 ovarian): > 100 µM
- GI50 (UACC-257 melanoma): 9.63 µM
- TGI (UACC-257 melanoma): > 100 µM
- GI50 (MALME-3M melanoma): 6.27 µM
- TGI (MALME-3M melanoma): > 100 µM
- GI50 (IGROV1 ovarian): 3.6 µM
- TGI (IGROV1 ovarian): > 100 µM
- GI50 (CCRF-CEM leukemia): 3.82 µM
- TGI (CCRF-CEM leukemia): > 100 µM
- GI50 (MDA-MB-435): 1.16 µM
- TGI (MDA-MB-435): 2.83 µM
- GI50 (HCC-2998 colon): 4.19 µM
- TGI (HCC-2998 colon): > 100 µM
- GI50 (SK-MEL-28 melanoma): 16.5 µM
- TGI (SK-MEL-28 melanoma): > 100 µM
- GI50 (MCF7 breast): 2.72 µM
- TGI (MCF7 breast): > 100 µM
- GI50 (OVCAR-8 ovarian): 4.17 µM
- TGI (OVCAR-8 ovarian): > 100 µM
- GI50 (CAKI-1 renal): 4.2 µM
- TGI (CAKI-1 renal): > 100 µM
- GI50 (786-0 renal): 4.24 µM
- TGI (786-0 renal): > 100 µM
- GI50 (EKVX NSCLC): 4.18 µM
- TGI (EKVX NSCLC): > 100 µM
- GI50 (SW-620 colon): 3.86 µM
- TGI (SW-620 colon): > 100 µM
- GI50 (HS 578T breast): 2.57 µM
- TGI (HS 578T breast): 9.13 µM
- GI50 (K-562 leukemia): 3.48 µM
- TGI (K-562 leukemia): > 100 µM
- GI50 (T-47D breast): 4.26 µM
- TGI (T-47D breast): > 100 µM
- GI50 (UACC-62 melanoma): 5.2 µM
- TGI (UACC-62 melanoma): > 100 µM
- GI50 (LOX IMVI melanoma): 4.64 µM
- TGI (LOX IMVI melanoma): 27.2 µM
- GI50 (BT-549 breast): 6.84 µM
- TGI (BT-549 breast): > 100 µM
- GI50 (DU-145 prostate): 4.2 µM
- TGI (DU-145 prostate): > 100 µM
- GI50 (SK-MEL-2 melanoma): 6.01 µM
- TGI (SK-MEL-2 melanoma): > 100 µM
- GI50 (ACHN renal): 6.5 µM
- TGI (ACHN renal): > 100 µM
- GI50 (M14 melanoma): 2.12 µM
- TGI (M14 melanoma): 5.39 µM
- GI50 (SK-OV-3 ovarian): 4.58 µM
- TGI (SK-OV-3 ovarian): > 100 µM
- GI50 (HOP-92 NSCLC): 11.7 µM
- TGI (HOP-92 NSCLC): 90 µM
- GI50 (HT29 colon): 3.38 µM
- TGI (HT29 colon): 25 µM
- GI50 (SNB-19 CNS): 4.36 µM
- TGI (SNB-19 CNS): > 100 µM
- GI50 (MOLT-4 leukemia): 4.95 µM
- TGI (MOLT-4 leukemia): > 100 µM
- GI50 (SF-539 CNS): 2.35 µM
- TGI (SF-539 CNS): 6.06 µM
- GI50 (MDA-MB-231 breast): 4.95 µM
- TGI (MDA-MB-231 breast): 42.3 µM
- GI50 (OVCAR-5 ovarian): 3.93 µM
- TGI (OVCAR-5 ovarian): > 100 µM
- GI50 (HCT-15 colon): 2.72 µM
- TGI (HCT-15 colon): > 100 µM
- GI50 (NCI/ADR-RES ovarian): 3.28 µM
- TGI (NCI/ADR-RES ovarian): > 100 µM
- GI50 (NCI-H23 lung): 4.59 µM
- TGI (NCI-H23 lung): > 100 µM
- GI50 (A549 NSCLC): 4.07 µM
- TGI (A549 NSCLC): > 100 µM
- GI50 (COLO 205 colon): 3.26 µM
- TGI (COLO 205 colon): 10.9 µM
- GI50 (UO-31 renal): 5.52 µM
- TGI (UO-31 renal): > 100 µM
- GI50 (KM12 colon): 3.07 µM
- TGI (KM12 colon): 16.5 µM
